Results taken from PubChem BioAssay AID2842 (Southern Research Institute, 2010).
Converted amounts (≈) assume the structure as drawn.

The compounds below were run on M. tuberculosis H37Rv growth inhibition (assay: Mycobacterium tuberculosis H37Rv growth inhibition, putative kinase inhibitor library, confirmatory dose response (AID 2842);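 also: bacteria incubated one week before Alamar blue readout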).

Question: O=[n+]1c2ccccc2n([O-])c2ccccc21 was tested. Which IC90 did it give?
Answer: Its IC90 is 3.52 µg/mL (≈ 16.6 µM).

Question: Which IC90 does the source give for O=C(Nc1nnc(-c2ccccn2)o1)c1cccc(F)c1 here?
Answer: Its IC90 is 3.47 µg/mL (≈ 12.2 µM).

Question: How did the IC90 turn out when O=c1[nH]c(N/N=C/c2cccs2)nnc1-c1ccccc1 was run?
Answer: The IC90 was 21.6 µg/mL (≈ 72.5 µM).

Question: Cn1c(/C(C#N)=C/c2c[nH]c3ccccc23)nc2ccccc21 was tested. Which IC90 did it give?
Answer: The IC90 was 10.2 µg/mL (≈ 34.3 µM).

Question: Which IC90 does the source give for N#Cc1ccccc1NC(=O)C(=O)NCCSc1ncc(-c2ccccc2)[nH]1 here?
Answer: Its IC90 is 4.48 µg/mL (≈ 11.4 µM).

Question: Which IC90 does the source give for COc1ccc(-c2cc3ccccc3n2CC(O)CNCCc2ccccc2)cc1 (stereo unspecified) here?
Answer: The IC90 was 4.11 µg/mL (≈ 10.3 µM).

Question: COc1cccc(C(=O)N(CCCn2ccnc2)c2nc3ccc(F)cc3s2)c1OC was tested. Which IC90 did it give?
Answer: The IC90 was 6.75 µg/mL (≈ 15.3 µM).

Question: For CCCCc1ccc2nc(Nc3nc4ccc(S(C)(=O)=O)cc4s3)sc2c1, which IC90 is on record?
Answer: The IC90 was 31.8 µg/mL (≈ 76.1 µM).

Question: With Nc1[nH]nc2nc(N3CCCCC3)nc(-c3ccc4c(c3)OCO4)c12 as the compound, how does the IC90 read?
Answer: Its IC90 is 11.6 µg/mL (≈ 34.3 µM).

Question: Which IC90 does the source give for Cc1cn2c3c(=O)[nH]c(=O)n(C)c3nc2n1CCCNc1ccccc1 here?
Answer: Its IC90 is 3.69 µg/mL (≈ 10.5 µM).

Question: Which IC90 does the source give for COC(=O)c1c(C)oc2ccc(OCC(=O)OC(C)C)cc12 here?
Answer: The IC90 was 7.05 µg/mL (≈ 23 µM).

Question: CCOC(=O)COc1ccc(/C=C2\Oc3cc(OC)ccc3C2=O)cc1 was tested. Which IC90 did it give?
Answer: The IC90 was 3.32 µg/mL (≈ 9.37 µM).

Question: How did the IC90 turn out when OCc1nc2ccccc2n1CCCCOc1ccc(Cl)cc1 was run?
Answer: Its IC90 is 7.39 µg/mL (≈ 22.3 µM).

Question: With O=C(CN1C(=O)CCC1=O)Nc1nnc(-c2ccc3c(c2)CCCC3)o1 as the compound, how does the IC90 read?
Answer: The IC90 was 27.6 µg/mL (≈ 78 µM).

Question: With COc1ccc(-c2nnc(NC(=O)c3ccc(Cl)cc3Cl)o2)cc1 as the compound, how does the IC90 read?
Answer: The IC90 was 14.1 µg/mL (≈ 38.7 µM).

Question: Which IC90 does the source give for Cc1ccccc1C(=O)N1N=C(c2c(-c3ccccc3)c3cc(Br)ccc3[nH]c2=O)CC1c1ccccc1 (stereo unspecified) here?
Answer: The IC90 was 1.68 µg/mL (≈ 2.99 µM).

Question: With Cc1nnc2ccc(-c3cccc(NC(=O)COc4ccc(Cl)cc4)c3)nn12 as the compound, how does the IC90 read?
Answer: The IC90 was 23.5 µg/mL (≈ 59.6 µM).

Question: O=C(Cc1cccc2ccccc12)Nc1nnc(-c2cccs2)o1 was tested. Which IC90 did it give?
Answer: Its IC90 is 40.1 µg/mL (≈ 120 µM).

Question: For CCOc1cc(-c2nnc(NC(=O)C(C)C)o2)cc(OCC)c1OCC, which IC90 is on record?
Answer: Its IC90 is 9.11 µg/mL (≈ 25.1 µM).

Question: How did the IC90 turn out when CSc1ccccc1-c1nnc(NC(=O)c2cc([N+](=O)[O-])ccc2Cl)o1 was run?
Answer: The IC90 was 2.12 µg/mL (≈ 5.42 µM).

Question: How did the IC90 turn out when CN1C(=O)c2cccc(NC(=O)c3ccc([N+](=O)[O-])s3)c2C1=O was run?
Answer: Its IC90 is 25.1 µg/mL (≈ 75.7 µM).

Question: COc1cccc2sc(Nc3nc4ccc(C(C)C)cc4s3)nc12 was tested. Which IC90 did it give?
Answer: Its IC90 is 2.24 µg/mL (≈ 6.3 µM).

Question: For COc1ccc(-n2nnc3c(SCC(N)=O)ncnc32)cc1, which IC90 is on record?
Answer: The IC90 was 5.67 µg/mL (≈ 17.9 µM).

Question: For CCCCc1ccc2[nH]cc(C(=O)O)c(=O)c2c1, which IC90 is on record?
Answer: The IC90 was 14.5 µg/mL (≈ 59 µM).

Question: For CC1CN(c2ncnc3c2c(-c2ccccc2)cn3-c2ccc(F)cc2)CC(C)O1 (stereo unspecified), which IC90 is on record?
Answer: Its IC90 is 42.4 µg/mL (≈ 105 µM).

Question: With COc1ccc(Cn2cc(C(=O)c3ccc(C)cc3)c(=O)c3cc(OC)c(OC)cc32)cc1 as the compound, how does the IC90 read?
Answer: Its IC90 is 7.05 µg/mL (≈ 15.9 µM).

Question: Which IC90 does the source give for Cc1ccc(Nc2nc(N3CCN(Cc4ccccc4)CC3)nc3nccnc23)cc1 here?
Answer: Its IC90 is 7.94 µg/mL (≈ 19.3 µM).

Question: For O=C(Nc1nnc(-c2ccc3c(c2)OCCO3)o1)c1ccccc1Oc1ccccc1, which IC90 is on record?
Answer: Its IC90 is 3.77 µg/mL (≈ 9.08 µM).

Question: With Cc1cc(Nc2ccc(C)c(Cl)c2)n2ncc(-c3ccccc3)c2n1 as the compound, how does the IC90 read?
Answer: Its IC90 is 3.35 µg/mL (≈ 9.6 µM).

Question: How did the IC90 turn out when Cc1cccc2sc(NNC(=O)c3ccc(N(C)C)cc3)nc12 was run?
Answer: The IC90 was 28.6 µg/mL (≈ 87.6 µM).

Question: For CCCCC(=O)Nc1nnc(-c2ccc3c(c2)CCCC3)o1, which IC90 is on record?
Answer: Its IC90 is 3.04 µg/mL (≈ 10.2 µM).

Question: For O=C(Nc1nnc(-c2ccc(Br)cc2)o1)c1sc2ccccc2c1Cl, which IC90 is on record?
Answer: The IC90 was 6.7 µg/mL (≈ 15.4 µM).

Question: How did the IC90 turn out when COc1cccc(-c2nnc(NC(=O)c3ccc(Cl)cc3Cl)o2)c1 was run?
Answer: The IC90 was 8.25 µg/mL (≈ 22.7 µM).

Question: COc1cccc2sc(Nc3nnc(-c4cccs4)o3)nc12 was tested. Which IC90 did it give?
Answer: Its IC90 is 3.36 µg/mL (≈ 10.2 µM).

Question: With Cc1ccc(-n2ccnc(NCC(C)c3ccccc3)c2=O)cc1C (stereo unspecified) as the compound, how does the IC90 read?
Answer: The IC90 was 18.1 µg/mL (≈ 54.4 µM).

Question: How did the IC90 turn out when Cc1ccc(C)c(-c2nnc(NC(=O)c3ccc([N+](=O)[O-])cc3)o2)c1 was run?
Answer: The IC90 was 78.5 µg/mL (≈ 232 µM).

Question: With Cc1ccc(-c2nnc(NC(=O)c3cccc(Oc4ccccc4)c3)o2)c(C)c1 as the compound, how does the IC90 read?
Answer: Its IC90 is 25.3 µg/mL (≈ 65.5 µM).

Question: With COC(=O)c1c(NC(=O)c2cc3ccccc3cc2OC)sc2c1CC(C)(C)NC2(C)C as the compound, how does the IC90 read?
Answer: The IC90 was 31.8 µg/mL (≈ 70.2 µM).

Question: Which IC90 does the source give for Cc1ccc(Nc2nc(N3CCN(c4ccc(F)cc4)CC3)nc3nccnc23)cc1C here?
Answer: Its IC90 is 22.8 µg/mL (≈ 53 µM).

Question: NC(=O)c1oc2ccccc2c1NC(=O)C1CC(=O)N(c2ccc(Cl)cc2)C1 (stereo unspecified) was tested. Which IC90 did it give?
Answer: The IC90 was 3.15 µg/mL (≈ 7.92 µM).

Question: How did the IC90 turn out when Cc1cccc(-c2nc(SCC(=O)Nc3ccc4c(c3)OCO4)c(-c3ccccc3)[nH]2)c1 was run?
Answer: Its IC90 is 9.98 µg/mL (≈ 22.5 µM).
